How the values were obtained:
[1] = in vivo; cited from earlier work
primary microglia = experiment: α-syn PFF induced microglial activation, cytokine mRNA by qPCR; format: cell-based, mouse; details: agonist 2 μM, 150 nM PFF for 4 h
Description: Mouse microglia isolated from postnatal day 2 CD1 mouse brain were obtained from ScienCell Research Laboratories (M1900, Carlsbad, CA). […] Pre-condition: 24 hrs non-serum condition.
Total RNA from cultured cells was extracted with a RNA isolation kit (Qiagen, Valencia, CA, USA) following the instructions provided by the company. RNA concentration was measured spectrophotometrically using a NanoDrop 2000 (Biotek, Winooski, VT, USA). Subsequently, 1-2 μg of total RNA was reverse transcribed to cDNA using the High-Capacity cDNA Reverse Transcription System (Life Technologies, Grand Island, NY, USA). Comparative qPCR was performed in duplicate or triplicate for each sample using fast SYBR Green Master Mix (Life Technologies) and ViiA 7 Real-Time PCR System (Applied Biosystems, Foster City, CA, USA). The expression levels of target genes were normalized to the expression of Actb and calculated based on the comparative cycle threshold Ct method (2^−ΔΔCt).

FaSSIF/pancreatin = experiment: in vitro stability against FaSSIF/pancreatin; format: in vitro ADME; details: 0 min
trypsin = experiment: in vitro stability against trypsin; format: in vitro ADME; details: 0 min

Compound	half-life [1] [h]	α-syn PFF induced mRNA expression of TNF-α, IL-1α, IL-1β, C1q and IL-6 (primary microglia)	Remaining amount (%) after FaSSIF/Pancreatin treatment (FaSSIF/pancreatin) [%]	Remaining amount (%) after trypsin treatment (trypsin) [%]
NLY01: long-acting PEGylated form of exenatide	88	significantly reduces	–	–
CC[C@H](C)[C@H](NC(=O)[C@H](Cc1ccccc1)NC(=O)[C@H](CCC(=O)O)NC(=O)[C@H](CCCCNC(=O)COCCOCCNC(=O)COCCOCCNC(=O)CC[C@H](NC(=O)CCCCCCCCCCCCCCCCC(=O)O)C(=O)O)NC(=O)[C@H](C)NC(=O)[C@H](C)NC(=O)[C@H](CCC(N)=O)NC(=O)CNC(=O)[C@H](CCC(=O)O)NC(=O)[C@H](CC(C)C)NC(=O)[C@H](Cc1ccc(O)cc1)NC(=O)[C@H](CO)NC(=O)[C@H](CO)NC(=O)[C@@H](NC(=O)[C@H](CC(=O)O)NC(=O)[C@H](CO)NC(=O)[C@@H](NC(=O)[C@H](Cc1ccccc1)NC(=O)[C@@H](NC(=O)CNC(=O)[C@H](CCC(=O)O)NC(=O)C(C)(C)NC(=O)[C@@H](N)Cc1cnc[nH]1)[C@@H](C)O)[C@@H](C)O)C(C)C)C(=O)N[C@@H](C)C(=O)N[C@@H](Cc1c[nH]c2ccccc12)C(=O)N[C@@H](CC(C)C)C(=O)N[C@H](C(=O)N[C@@H](CCCNC(=N)N)C(=O)NCC(=O)N[C@@H](CCCNC(=N)N)C(=O)NCC(=O)O)C(C)C [Semaglutide]	–	–	100.0	100.0
